Measured values from patent publication US20220387630A1, “METHOD FOR SCREENING ANTICANCER AGENT AND COMBINATION DRUG OF KINASE INHIBITORS FOR TREATMENT OF PANCREATIC CANCER” (National University Corporation Hokkaido University, priority 2020, published 2022).

Columns and labels:
4-hit flies (non-GFP) = experiment: Efficacy of kinase inhibitors on 4-hit fly survival rate (drug food); assay type: in vivo, Drosophila; details: used alone; 1 M Trametinib in food; reared at 25° C. for 13 days
Experimental: Trametinib (MEK inhibitor), Adavosertib (referred also to as MK-1775, WEE1 inhibitor), AD80 (FRK inhibitor), Y-27632 (ROCK inhibitor), Alisertib (AURKA inhibitor, the above all purchased from MedChem Express), BI-831266 (AURKB inhibitor, obtained from Boehringer Ingelheim) was each dissolved in DMSO (SIGMA) and stored at −20° C.
Agar (Wako), brewers' yeast (MP Bio), yeast extract (Sigma Aldrich), bacto casitone (BD), sucrose (Wako), glucose (Wako), MgCl2 (Wako) CaCl2 (Wako), Propionic acid (Wako), and Mold inhibitor (10% Methyl-4-hydroxy Benzoate in 95% Ethanol; Wako) were dissolved in ultrapure water to prepare a standard food. While kept at 50° C., the kinase inhibitor (Trametinib alone or a combination of Trametinib and another kinase inhibitor) dissolved in DMSO was added for mixing. The resulting solution was cooled to obtain a drug food. The final concentrations of the compounds in the food were […] for Trametinib, 100 μM for Adavosertib, 50 μM for AD80, 10 μM for Y-27632, and 100 μM for BI-831266.
The UAS-Ras^G12D, UAS-p53^shRNA, UAS-CycE, UAS-Med^shRNA fly produced in Example 1 was mated with a Ser-gal4 fly (Bloomington Drosophila Stock Center). […] The eggs were reared at 25° C. for 13 days, and survival rate of 4-hit flies (non-GFP) reared on each food was calculated by dividing the number of eclosed pupae by the total number of pupae.

MIA PaCa-2 cells = experiment: MTS cell viability assay in human pancreatic cancer cells; assay type: cell-based; details: in combination with Trametinib, 72 hours
Experimental: Example 4 Evaluation of efficacy of kinase inhibitor with use of human pancreatic cancer cells Human pancreatic cancer cell line (MIA PaCa-2) was purchased from National Institute of RIKEN BioResource Research Center, and cultured in Dulbecco's Modified Eagle's Medium (Nacalai tesque) supplemented with 10% fetal bovine serum (Gibco) and 1% penicillin-streptomycin (Nacalai tesque) at 37° C. in the presence of 5% CO2.
Trametinib (DMSO only, 1 μM, 300 μM), Adavosertib (300 μM, 1 mM), AD80 (30 μM, 3 mM), Alisertib (30 μM, 1 mM) and BI-831266 (3 μM, 3 mM) was each prepared and diluted to 100-fold in the medium to produce a drug solution.
MIA PaCa-2 cells were seeded into a 96-well plate at 1000 cells/well (in 100 μL medium). After culturing for one day, 10 μL of the drug solution of Trametinib alone or Trametinib combined with another kinase inhibitor was added to the cells in each well on the 96-well plate (0.2% final concentration of DMSO). Each combination was tested in five wells. After the addition of the drug solution, the cells were cultured at 37° C. for 72 hours in the presence of 5% CO2, and then the cell viability was measured using MTS assay (CellTiter 96 (registered trademark), Promega). The viability is expressed as a ratio to that of a control (solvent only).

Row | Structure (SMILES) | increase of survival rate of 4-hit flies (non-GFP) (4-hit flies (non-GFP)) | cell viability compared to that of Trametinib used alone (MIA PaCa-2 cells)
1 | CC(=O)Nc1cccc(-n2c(=O)n(C3CC3)c(=O)c3c(Nc4ccc(I)cc4F)n(C)c(=O)c(C)c32)c1 [Trametinib] | 20% | –
2 | C=CCn1c(=O)c2cnc(Nc3ccc(N4CCN(C)CC4)cc3)nc2n1-c1cccc(C(C)(C)O)n1 [Adavosertib] | – | greatly reduced the cell viability
3 | COc1cc(Nc2ncc3c(n2)-c2ccc(Cl)cc2C(c2c(F)cccc2OC)=NC3)ccc1C(=O)O [Alisertib] | – | greatly reduced the cell viability
4 | CC(C)n1nc(-c2ccc(NC(=O)Nc3cc(C(F)(F)F)ccc3F)cc2)c2c(N)ncnc21 [AD80] | – | greatly reduced the cell viability
